Where two headings read alike, the source gives them in different places.
What was measured:
[1] = system: APESV; test: Pre-emergent Test III, preemergent activity in wheat and barley; format: in vivo, Apera spica-venti
Protocol: (§1) Pre-emergent Test III. Seeds of test species were planted into square plastic pots (10 cm wide) containing sandy loam soil. After planting, all pots were sub-irrigated 16 h prior to compound application. A weighed amount, determined by the highest rate to be tested, of each test compound was placed in a 25 mL glass vial and was dissolved in 4 mL of a 97:3 v/v mixture of acetone and DMSO to obtain concentrated stock solutions. […] The concentrated stock solutions obtained were diluted with 20 mL of an aqueous mixture containing water and 0.02% w/v (weight/volume) of Triton X-155 to obtain spray solutions containing the highest application rates. Additional application rates were obtained by serial dilution of 12 mL of the high rate solution into a solution containing 2 mL of 97:3 v/v mixture of acetone and DMSO and 10 mL of an aqueous mixture containing water and 0.02% w/v (weight/volume) of Triton X-155 to obtain 1⁄2×, 1⁄4×, 1⁄8× and 1/16× rates of the high rate. Compound requirements are based upon a 12 mL application volume at a rate of 187 liters per hectare (L/ha). Formulated compounds were applied to the soil surface with an overhead Mandel track sprayer equipped with […] nozzles calibrated to deliver 187 L/ha over an application area of 0.503 square meters. Control pots were sprayed in the same manner with the solvent blank. The treated pots and control pots were placed in a greenhouse as described above and watered through surface irrigation. After 21 d, the condition of the test pots as compared with that of the untreated pots was determined visually and scored on a scale of 0 to 100 percent where 0 corresponds to no herbicidal effect and 100 corresponds to plant death or lack of emergence from the soil. By applying the well-accepted probit analysis as described by J. Berkson in Journal of the American Statistical Society, 48, 565 (1953) and by D. Finney in “Probit Analysis” Cambridge University Press (1952), the above data can be used to calculate GR20, GR50, GR80 and GR90 values, which are defined as growth reduction factors that correspond to the effective dose of herbicide required to kill or control 20 percent, 50 percent, 80 percent or 90 percent, respectively, of a target plant.

[2] = system: LOLSS; test: as above; format: in vivo, Lolium multiflorum, Lolium rigidum
Protocol: as §1

[3] = system: test plant species in Direct Seeded Rice; test: Postemergence herbicidal activity in direct seeded rice (Table 13); format: in vivo; details: for pest or weed control at 35 g/ha / pest or weed control at 70 g/ha: post-emergence, 504 h; for pest or weed control at 35 g/ha: 35 g ai/ha; for pest or weed control at 70 g/ha: 70 g ai/ha
Procedure, shortened: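 Greenhouse-grown plants at the second or third true leaf stage were sprayed postemergence at 187 L/ha with compound in acetone/DMSO (final 16.2%/0.5%) plus aqueous Agri-dex crop oil concentrate; controls got solvent blank. Injury was rated visually 0–100% after 20-22 days, and GR20, GR50, GR80 and GR90 derived by probit analysis.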

[4] = 21 days after application, dose to kill or control 50%, probit analysis
[5] = 21 days after application, dose to kill or control 80%, probit analysis
[6] = BRAPP: broadleaf signalgrass, Brachiaria platyphylla, probit analysis
[7] = CYPSS: sedge (Cyperus difformis, esculentus, iria), probit analysis
[8] = ECHSS: barnyardgrass (Echinochloa crus-galli), junglerice (Echinochloa colonum), probit analysis
[9] = LEFSS: sprangletop (Leptochloa chinensis, Leptochloa dubia), probit analysis
[10] = SCPJU: Japanese bulrush, Scirpus juncoides, probit analysis
[11] = SEBEX: hemp sesbania, Sesbania exaltata, probit analysis
[12] = BRAPP: broadleaf signalgrass, Brachiaria platyphylla, read-out: Visual Growth Reduction (%) 21 Days After Application BRAPP
[13] = CYPSS: sedge (Cyperus difformis, esculentus, iria), read-out: Visual Growth Reduction (%) 21 Days After Application CYPSS
[14] = ECHSS: barnyardgrass (Echinochloa crus-galli), junglerice (Echinochloa colonum), read-out: Visual Growth Reduction (%) 21 Days After Application ECHSS
[15] = LEFSS: sprangletop (Leptochloa chinensis, Leptochloa dubia), read-out: Visual Growth Reduction (%) 21 Days After Application LEFSS
[16] = ORYSS: Oryza sativa, read-out: Visual Growth Reduction (%) 21 Days After Application ORYSS
[17] = SCPJU: Japanese bulrush, Scirpus juncoides, read-out: Visual Growth Reduction (%) 21 Days After Application SCPJU
[18] = SEBEX: hemp sesbania, Sesbania exaltata, read-out: Visual Growth Reduction (%) 21 Days After Application SEBEX

Structure (SMILES): COC(=O)c1nc(-c2ccc(Br)c(F)c2)c(F)c(N)c1Cl [Compound 49]
- Visual Growth Reduction (%) 21 Days After Application, APESV ([1]; 35 g ai/ha): F (30-44)
- Visual Growth Reduction (%) 21 Days After Application, APESV ([1]; 70 g ai/ha): E (45-59)
- GR50 APESV [1, 4]: >70 g ai/ha
- GR80 APESV [1, 5]: >70 g ai/ha
- Visual Growth Reduction (%) 21 Days After Application, LOLSS ([2]; 35 g ai/ha): G (0-29)
- Visual Growth Reduction (%) 21 Days After Application, LOLSS ([2]; 70 g ai/ha): G (0-29)
- GR50 LOLSS [2, 4]: >70 g ai/ha
- GR80 LOLSS [2, 5]: >70 g ai/ha

Structure (SMILES): COC(=O)c1nc(-c2ccc(Cl)c(F)c2)c(F)c(N)c1Cl [Compound 216]
- GR50 BRAPP [3, 6]: 8 g ai/ha
- GR80 BRAPP [3, 6]: 27 g ai/ha
- GR50 CYPSS [3, 7]: 10 g ai/ha
- GR80 CYPSS [3, 7]: 70 g ai/ha
- GR50 ECHSS [3, 8]: 4 g ai/ha
- GR80 ECHSS [3, 8]: 15 g ai/ha
- GR50 LEFSS [3, 9]: 8 g ai/ha
- GR80 LEFSS [3, 9]: 23 g ai/ha
- GR20 ORYSS ([3]; ORYSS: Oryza sativa (crop), probit analysis): >70 g ai/ha
- GR50 SCPJU [3, 10]: 1 g ai/ha
- GR80 SCPJU [3, 10]: 1 g ai/ha
- GR50 SEBEX [3, 11]: 1 g ai/ha
- GR80 SEBEX [3, 11]: 1 g ai/ha
- pest or weed control at 35 g/ha [3, 12]: 85 to 94%
- pest or weed control at 70 g/ha [3, 12]: 85 to 94%
- pest or weed control at 35 g/ha [3, 13]: 85 to 94%
- pest or weed control at 70 g/ha [3, 13]: 85 to 94%
- pest or weed control at 35 g/ha [3, 14]: 85 to 94%
- pest or weed control at 70 g/ha [3, 14]: 95 to 100%
- pest or weed control at 35 g/ha [3, 15]: 85 to 94%
- pest or weed control at 70 g/ha [3, 15]: 95 to 100%
- pest or weed control at 35 g/ha [3, 16]: 0 to 29%
- pest or weed control at 70 g/ha [3, 16]: 0 to 29%
- pest or weed control at 35 g/ha [3, 17]: 95 to 100%
- pest or weed control at 70 g/ha [3, 17]: 95 to 100%
- pest or weed control at 35 g/ha [3, 18]: 95 to 100%
- pest or weed control at 70 g/ha [3, 18]: 95 to 100%
